Measurements taken from the supplement of paper PMC10307832.

Key:
Assay in all cases: relative viability (nuclei count vs DMSO), 5 days (fraction); higher = more cells survive
Doramapimod + Pictilisib = compound: Cc1ccc(-n2nc(C(C)(C)C)cc2NC(=O)Nc2ccc(OCCN3CCOCC3)c3ccccc23)cc1 [Doramapimod] + CS(=O)(=O)N1CCN(Cc2cc3nc(-c4cccc5[nH]ncc45)nc(N4CCOCC4)c3s2)CC1 [Pictilisib] (partner 1 µM)
Procedure, shortened: (§1)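 Lung cancer cell lines were seeded in 1536-well plates and dosed by pin tool the next day, with either a single drug or a fixed anchor-drug dose combined with five library-drug doses (not always all listed) spaced in √10 steps. Five days later, one step fixed the cells and stained their nuclei (final 0.05% Triton X-100, 1% formaldehyde, 1 ug/ml Hoechst), and nuclei were counted on 4× images. Relative viability is the nuclei count in treated wells divided by the count in vehicle wells, and each value is the median of duplicate plates.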

Doramapimod + Linsitinib = compound: Cc1ccc(-n2nc(C(C)(C)C)cc2NC(=O)Nc2ccc(OCCN3CCOCC3)c3ccccc23)cc1 [Doramapimod] + C[C@]1(O)C[C@@H](c2nc(-c3ccc4ccc(-c5ccccc5)nc4c3)c3c(N)nccn32)C1 [Linsitinib] (partner 1 µM)
Procedure, shortened: as §1

RAF265 + Palbociclib = compound: Cn1c(Nc2ccc(C(F)(F)F)cc2)nc2cc(Oc3ccnc(-c4ncc(C(F)(F)F)[nH]4)c3)ccc21 [RAF265] + CC(=O)c1c(C)c2cnc(Nc3ccc(N4CCNCC4)cn3)nc2n(C2CCCC2)c1=O [Palbociclib] (partner 0.5 µM)
Procedure, shortened: as §1

RAF265 + Pemetrexed = compound: Cn1c(Nc2ccc(C(F)(F)F)cc2)nc2cc(Oc3ccnc(-c4ncc(C(F)(F)F)[nH]4)c3)ccc21 [RAF265] + Nc1nc2[nH]cc(CCc3ccc(C(=O)N[C@@H](CCC(=O)O)C(=O)O)cc3)c2c(=O)[nH]1 [Pemetrexed] (partner 0.2 µM)
Procedure, shortened: as §1

| Cell Line | relative viability (Doramapimod + Pictilisib; first compound 0.02 µM) | relative viability (Doramapimod + Pictilisib; first compound 0.06325 µM) | relative viability (Doramapimod + Pictilisib; first compound 0.2 µM) | relative viability (Doramapimod + Pictilisib; first compound 0.6325 µM) | relative viability (Doramapimod + Pictilisib; first compound 2 µM) | relative viability (Doramapimod + Linsitinib; first compound 0.02 µM) | relative viability (Doramapimod + Linsitinib; first compound 0.06325 µM) | relative viability (Doramapimod + Linsitinib; first compound 0.2 µM) | relative viability (Doramapimod + Linsitinib; first compound 0.6325 µM) | relative viability (Doramapimod + Linsitinib; first compound 2 µM) | relative viability (RAF265 + Palbociclib; first compound 0.01 µM) | relative viability (RAF265 + Palbociclib; first compound 0.03162 µM) | relative viability (RAF265 + Palbociclib; first compound 0.1 µM) | relative viability (RAF265 + Palbociclib; first compound 0.3162 µM) | relative viability (RAF265 + Palbociclib; first compound 1 µM) | relative viability (RAF265 + Pemetrexed; first compound 0.01 µM) | relative viability (RAF265 + Pemetrexed; first compound 0.03162 µM) | relative viability (RAF265 + Pemetrexed; first compound 0.1 µM) | relative viability (RAF265 + Pemetrexed; first compound 0.3162 µM) | relative viability (RAF265 + Pemetrexed; first compound 1 µM) |
| --- | --- | --- | --- | --- | --- | --- | --- | --- | --- | --- | --- | --- | --- | --- | --- | --- | --- | --- | --- | --- |
| NCI-H661 | 0.483 | 0.405 | 0.381 | 0.452 | 0.377 | 0.634 | 0.568 | 0.555 | 0.741 | 0.599 | 0.457 | 0.408 | 0.337 | 0.326 | 0.344 | 0.941 | 0.873 | 0.835 | 0.701 | 0.615 |
| NCI-H2009 | 0.812 | 0.656 | 0.826 | 0.395 | 0.823 | 1.21 | 1.23 | 1.3 | 1.23 | 1.16 | 0.264 | 0.224 | 0.162 | 0.17 | 0.144 | 1.01 | 0.955 | 1.02 | 0.965 | 0.885 |
| HCC-44 | 1.46 | 0.58 | 0.546 | 0.581 | 0.35 | 0.662 | 0.669 | 0.675 | 0.634 | 0.626 | 1.01 | 0.908 | 0.96 | 1.04 | 1.01 | 0.647 | 0.597 | 0.655 | 0.622 | 0.653 |
| COR-L23 | 0.812 | 0.791 | 0.796 | 0.797 | 0.751 | 0.962 | 0.917 | 0.827 | 0.933 | 0.931 | 0.295 | 0.233 | 0.235 | 0.184 | 0.148 | 0.188 | 0.206 | 0.202 | 0.182 | 0.184 |
| EMC-BAC-2 | 0.542 | 0.468 | 0.51 | 0.741 | 0.513 | 0.793 | 0.821 | 0.789 | 0.86 | 0.834 | 0.533 | 0.431 | 0.373 | 0.345 | 0.176 | 0.432 | 0.406 | 0.427 | 0.347 | 0.258 |
| LCLC-103H | 0.57 | 0.633 | 0.64 | 0.789 | 0.521 | 0.99 | 1.06 | 1.09 | 1.09 | 1.03 | 0.463 | 0.47 | 0.496 | 0.404 | 0.322 | 0.496 | 0.423 | 0.476 | 0.459 | 0.429 |
| LK-2 | 0.538 | 0.545 | 0.464 | 0.368 | 0.349 | 0.284 | 0.388 | 0.348 | 0.42 | 0.22 | 0.558 | 0.679 | 0.722 | 0.804 | 0.364 | 0.237 | 0.352 | 0.188 | 0.244 | 0.215 |
| SW 1573 | 0.448 | 0.375 | 0.408 | 0.423 | 0.379 | 0.722 | 0.74 | 0.8 | 0.739 | 0.736 | 0.419 | 0.328 | 0.312 | 0.245 | 0.215 | 0.872 | 0.833 | 0.753 | 0.6 | 0.634 |
| NCI-H2405 | 0.435 | 0.424 | 0.401 | 0.68 | 0.356 | 0.973 | 0.869 | 0.933 | 1.27 | 0.852 | 0.552 | 0.497 | 0.499 | 0.491 | 0.282 | 1.14 | 0.922 | 0.91 | 0.662 | 0.516 |
| NCI-H2087 | 0.754 | 0.795 | 0.83 | 0.764 | 0.847 | 0.976 | 1.13 | 0.939 | 0.962 | 0.951 | 0.238 | 0.207 | 0.181 | 0.164 | 0.159 | 0.599 | 0.669 | 0.549 | 0.649 | 0.543 |
| NCI-H460 | 0.374 | 0.383 | 0.266 | 0.548 | 0.291 | 0.71 | 0.736 | 0.733 | 0.875 | 0.641 | 0.203 | 0.203 | 0.171 | 0.2 | 0.0711 | 0.0601 | 0.0679 | 0.0652 | 0.0628 | 0.0612 |
| LOU-NH91 | 0.582 | 0.524 | 0.493 | 0.524 | 0.406 | 0.967 | 0.91 | 0.972 | 1.06 | 0.686 | 0.565 | 0.524 | 0.55 | 0.537 | 0.436 | 0.365 | 0.336 | 0.427 | 0.419 | 0.441 |
| NCI-H1651 | 0.605 | 0.478 | 0.551 | 0.695 | 0.519 | 0.92 | 0.844 | 0.923 | 0.977 | 0.917 | 0.508 | 0.517 | 0.504 | 0.479 | 0.47 | 0.587 | 0.567 | 0.431 | 0.494 | 0.532 |
| NCI-H441 | 0.451 | 0.323 | 0.417 | 0.44 | 0.394 | 0.528 | 0.512 | 0.541 | 0.553 | 0.442 | 0.212 | 0.237 | 0.233 | 0.171 | 0.183 | 0.267 | 0.251 | 0.258 | 0.223 | 0.224 |
